Measured values published in paper PMC5004293, “Characterization of FRM-36143 as a new γ-secretase modulator for the potential treatment of familial Alzheimer’s disease” (Alzheimer's Research & Therapy, 2016).
Like-named read-outs stand apart in the source and are kept apart here.

Assays:
γ-secretase [1] = assay: Aβ peptide ELISA in H4 cells stably expressing wild-type human APP751; type: cell-based
Procedure: (§1) Human neuroglioma H4 cells stably expressing wild-type human APP751 were used for this assay. Briefly, cells were plated at 15,000 cells/well in 96-well plates and left to settle for 6 h (37 °C; 5 % CO2). Cells were then washed three times with Pro293™ chemically defined medium (Lonza, Walkersville, MD, USA) followed by the addition of the compound (0.3 % final DMSO). Plates were incubated overnight, and the supernatant was removed for quantification of Aβ peptides by sandwich enzyme-linked immunosorbent assay (ELISA) (see below). Cytotoxicity was evaluated using Cell-Titer 96 W AQueous One Solution Cell Proliferation Assay (MTS Assay, Promega) according to the manufacturer’s protocol.
Aβ peptide levels were quantified by sandwich ELISA using anti-Aβ38, anti-Aβ40, anti-Aβ42, (BioLegend, Dedham, MA, USA) or anti-Aβ37 for the capture and 4G8-horseradish peroxidase (HRP; BioLegend) for detection. When measuring Aβ37 and Aβ38, 4G8-HRP was added to the sample for overnight incubation, whereas it was added after the overnight incubation for 1 h for Aβ40 and Aβ42 measurements.
For cell-based assays, freshly collected samples of cultured cell supernatant were added to the plates and incubated at 4 °C for about 24 h. Detection was performed using SureBlue 3,3’,5,5’-tetramethylbenzidine (TMB) peroxidase substrate (KPL, Inc., Gaithersburg, MD, USA) and the plates read on a SpectraMax M5e microplate reader (Molecular Devices, Inc., Sunnyvale, CA, USA). GSM-treated samples were normalized to samples treated with DMSO alone (100 %) and 5 μM GSI, DAPT (0 %; Sigma-Aldrich). EC50 values were calculated from values reported as percentage of DMSO using nonlinear regression, based on a sigmoidal dose–response (variable slope) model.

γ-secretase [2] = assay: Immunoprecipitation / MALDI-TOF mass spectrometry of Aβ peptides in H4 cell media; type: cell-based, human; conditions: 300 nM, overnight
Procedure: as §1
Immunoprecipitation of carboxyl-terminally truncated Aβ peptides from 4 mL of H4 cell media was conducted using the anti-Aβ antibody 6E10 (epitope 3–8 of Aβ; Covance, Inc., Dedham, MA, USA) or 4G8 (epitope 18–22 of Aβ; Covance, Inc., Dedham, MA, USA) coupled to magnetic beads as described elsewhere. After elution of the immunoprecipitated Aβ peptides, the detection was performed on an UltraFlextreme MALDI-TOF/TOF instrument (Bruker Daltonics, Bremen, Germany).

EC50 (γ-secretase [1]; H4 APP751 cells, overnight, ELISA, read-out: EC50 for Aβ37): 186 nM
EC50 (γ-secretase [1]; H4 APP751 cells, overnight, ELISA, read-out: EC50 for Aβ38): 38 nM
EC50 (γ-secretase [1]; H4 APP751 cells, overnight, ELISA, read-out: EC50 for Aβ40): 167 nM
EC50 (γ-secretase [1]; H4 cells expressing human WT APP751, overnight treatment, ELISA of conditioned media, read-out: EC50 for Aβ42): 35 nM
EC90 (γ-secretase [1]; assay not stated, compared with unbound brain concentration): 383 nM
EC50 (γ-secretase [1]; range over H4 cells and primary neurons, read-out: EC50 to reduce Aβ42 levels in cells): 35 to 53 nM
SMILES: COc1nc(C2=NOC[C@H](c3cc4ccccc4o3)N2)ccc1-n1cnc(C)c1 [FRM-36143, (R)-5-(benzofuran-2-yl)-3-(6-methoxy-5-(4-methyl-1H-imidazol-1-yl)pyridin-2-yl)-5,6-dihydro-4H-1,2,4-oxadiazine]
Percentage change (vs. DMSO) Aβ1–33 (γ-secretase [2]): 161%
Percentage change (vs. DMSO) Aβ1–34 (γ-secretase [2]): 125%
Percentage change (vs. DMSO) Aβ1–37 (γ-secretase [2]): 407%
Percentage change (vs. DMSO) Aβ1–38 (γ-secretase [2]): 126%
Percentage change (vs. DMSO) Aβ1–39 (γ-secretase [2]): 46%
Percentage change (vs. DMSO) Aβ1–40 (γ-secretase [2]): 26%
Percentage change (vs. DMSO) Aβ1–42 (γ-secretase [2]): 21%
Percentage change (vs. DMSO) Aβ5–38 (γ-secretase [2]): 150%
Percentage change (vs. DMSO) Aβ5–40 (γ-secretase [2]): 40%
Normalized AUC Aβ1–33 (γ-secretase [2]; semi-quantitative): 2.9
Normalized AUC Aβ1–34 (γ-secretase [2]; semi-quantitative): 0.5
Normalized AUC Aβ1–37 (γ-secretase [2]; semi-quantitative): 23.6
Normalized AUC Aβ1–38 (γ-secretase [2]; semi-quantitative): 15
Normalized AUC Aβ1–39 (γ-secretase [2]; semi-quantitative): 1.6
Normalized AUC Aβ1–40 (γ-secretase [2]; semi-quantitative): 10
Normalized AUC Aβ1–42 (γ-secretase [2]; semi-quantitative): 0.4
Normalized AUC Aβ5–37 (γ-secretase [2]; semi-quantitative): 1.9
Normalized AUC Aβ5–38 (γ-secretase [2]; semi-quantitative): 1.5
Normalized AUC Aβ5–40 (γ-secretase [2]; semi-quantitative): 1.2
